Series [1] has as its system Hepatitis B virus. Put plainly: Antiviral activity against HBV infected in LAM/ETV-resistant human HepG2.A64 cells assessed as inhibition of viral DNA replication at 10 uM pre-transfected cells with viral genome followed by compound treatment for 72 hrs by RT-PCR analysis relative to control. Format: functional.
Series [2] concerns Hepatitis B virus. The experiment in a line: Antiviral activity against HBV infected in human HepG2.2.15 cells assessed as inhibition of viral DNA replication at 10 uM pre-transfected cells with viral genome followed by compound treatment for 72 hrs by RT-PCR analysis relative to control. In kind it is functional.
The nature of series [3]: Cmax in Sprague-Dawley rat at 10 mg/kg, IG measured for 12 hrs by UPLC-MS/MS analysis. In kind it is ADME, organism-based. To be noted: in vivo, po.
The nature of series [4]: Cytotoxicity against human HepG2.A64 cells incubated for 72 hrs by CCK8 assay. In kind it is toxicity, cell-based. On the technique in general: Formazan colour is commonly taken as a measure of viable cells.
For series [5], the system named is Hepatitis B virus. The experiment in a line: Antiviral activity against HBV infected in human HepG2.2.15 cells assessed as inhibition of viral DNA replication at 4 uM pre-transfected cells with viral genome followed by compound treatment for 6 days with replacement of medium containing compound on every 2 days by RT-PCR analysis relative to control. Format: functional. To be noted: HepG2.2.15, 144 h, time 6 day.

Series [6] in a line: Tmax in Sprague-Dawley rat at 10 mg/kg, IG measured for 12 hrs by UPLC-MS/MS analysis. In kind it is ADME, organism-based. Particulars: in vivo, po.
Series [7] relates to Hepatitis B virus. Put plainly: Antiviral activity against HBV infected in human HepG2.2.15 cells assessed as inhibition of viral DNA replication at 4 uM pre-transfected cells with viral genome followed by compound treatment for 72 hrs by RT-PCR analysis relative to control. In kind it is functional.
Series [8] can be described thus: Cytotoxicity against human HepG2.2.15 cells incubated for 72 hrs by CCK8 assay. In kind it is toxicity, cell-based, HepG2 2.2.15.
Series [9] relates to Hepatitis B virus. Put plainly: Antiviral activity against HBV infected in LAM/ETV-resistant human HepG2.A64 cells assessed as inhibition of viral DNA replication at 4 uM pre-transfected cells with viral genome followed by compound treatment for 72 hrs by RT-PCR analysis relative to control. Format: functional.
Series [10] in a line: Selectivity index, ratio of CC50 for human HepG2.2.15 cells to IC50 for HBsAg secretion in human HepG2.2.15 cells. To be noted: for selectivity ratio: HepG2.2.15 cells, read-out: Ratio CC50/IC50. In kind it is toxicity, cell-based.
A short description of series [11]: Half life in Sprague-Dawley rat at 10 mg/kg, IG measured for 12 hrs by UPLC-MS/MS analysis. In kind it is ADME, organism-based. To be noted: in vivo, po.
Series [12] in a line: AUClast in Sprague-Dawley rat at 10 mg/kg, IG measured for 12 hrs by UPLC-MS/MS analysis. Format: ADME, organism-based. Particulars: in vivo, po.
The target of series [13] is T1, Toll-like receptor 7 (Homo sapiens) (UniProt Q9NYK1).
T1 sequence (whole entry): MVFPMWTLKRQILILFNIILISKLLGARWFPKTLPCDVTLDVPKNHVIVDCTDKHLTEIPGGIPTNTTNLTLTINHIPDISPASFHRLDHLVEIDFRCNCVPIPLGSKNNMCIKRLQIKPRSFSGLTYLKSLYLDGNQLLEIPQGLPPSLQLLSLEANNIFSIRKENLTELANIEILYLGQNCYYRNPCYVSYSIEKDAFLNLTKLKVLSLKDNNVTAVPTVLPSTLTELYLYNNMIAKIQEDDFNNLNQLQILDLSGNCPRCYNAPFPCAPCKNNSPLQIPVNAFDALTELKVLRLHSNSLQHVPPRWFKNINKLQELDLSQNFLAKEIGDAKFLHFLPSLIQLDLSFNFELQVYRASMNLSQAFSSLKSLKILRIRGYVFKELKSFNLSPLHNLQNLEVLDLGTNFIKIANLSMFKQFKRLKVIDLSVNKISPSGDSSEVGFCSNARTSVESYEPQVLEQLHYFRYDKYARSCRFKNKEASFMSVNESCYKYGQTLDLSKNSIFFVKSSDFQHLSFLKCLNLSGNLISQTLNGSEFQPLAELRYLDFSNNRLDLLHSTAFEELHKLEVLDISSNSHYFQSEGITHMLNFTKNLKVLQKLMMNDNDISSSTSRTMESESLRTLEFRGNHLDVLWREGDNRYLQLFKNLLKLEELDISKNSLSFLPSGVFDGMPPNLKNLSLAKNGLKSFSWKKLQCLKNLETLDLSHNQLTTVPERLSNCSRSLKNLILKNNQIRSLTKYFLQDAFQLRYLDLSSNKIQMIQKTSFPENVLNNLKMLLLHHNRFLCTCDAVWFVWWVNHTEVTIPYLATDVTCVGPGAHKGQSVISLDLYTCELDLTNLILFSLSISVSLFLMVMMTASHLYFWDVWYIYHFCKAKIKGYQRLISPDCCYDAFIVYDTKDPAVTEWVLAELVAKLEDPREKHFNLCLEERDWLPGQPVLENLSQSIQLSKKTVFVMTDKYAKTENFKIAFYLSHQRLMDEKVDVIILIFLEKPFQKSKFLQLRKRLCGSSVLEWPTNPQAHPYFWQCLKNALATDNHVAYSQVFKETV
The experiment in a line: Agonist activity at human TLR7 expressed in HEK293T cells co-transfected with NF-kappaB/Renilla luciferase incubated for 48 hrs by Dual-luciferase reporter gene assay. Particulars: filed as agonist, dose 0.4-10 µM. Format: cell-based. On the technique in general: In a reporter assay the amount or activity of a reporter protein is the signal.

The subject of series [14] is PBMC. Put plainly: Induction of IL-2 production in human PBMC cells incubated for 24 hrs by ELISA. In kind it is functional, cell-based. To be noted: dose 0.4-10 µM. (In general: ELISA stands for enzyme-linked immunosorbent assay.)
Series [15] can be described thus: Selectivity index, ratio of CC50 for human HepG2.A64 cells to IC50 for HBV infected in human HepG2.A64 cells assessed as inhibition of viral DNA replication. In kind it is toxicity, cell-based. To be noted: read-out: Ratio CC50/IC50.
The next series concerns HEK-293T. Put plainly: Effect on NF-kappaB/Renilla luciferase expression in HEK293T cells at 0.4 to 10 uM incubated for 48 hrs by Dual-luciferase reporter gene assay. In kind it is functional, cell-based. Particulars: Homo sapiens, dose 0.4-10 µM.
A short description of series [16]: Inhibition of HBsAg secretion in human HepG2.2.15 cells treated for 6 days with replacement of medium containing compound on every 2 days by […]. Format: functional, cell-based. To be noted: HepG2 2.2.15.
A further series has as its target T2, Toll-like receptor 7 (Homo sapiens, UniProt Q9NYK1).
T2 sequence (Q9NYK1 whole entry): T1 sequence (whole entry)
Put plainly: Binding affinity to recombinant human TLR7 assessed as dissociation constant by SPR analysis.

The test system of series [17] is PBMC. The experiment in a line: Induction of IFN-alpha production in human PBMC cells incubated for 24 hrs by ELISA. In kind it is functional, cell-based. To be noted: dose 0.4-10 µM.
For series [18], the system named is PBMC. Put plainly: Induction of TNF-alpha production in human PBMC cells incubated for 24 hrs by ELISA. Format: functional, cell-based. Particulars: dose 0.4-10 µM.
Series [19] has as its system Hepatitis B virus. The experiment in a line: Antiviral activity against HBV infected in human HepG2.A64 cells assessed as inhibition of viral DNA replication pre-transfected cells with viral genome followed by compound treatment for 3 days by RT-PCR analysis. Format: functional, organism-based. Particulars: HepG2.A64, 72 h.
A short description of series [20]: Selectivity index, ratio of CC50 for human HepG2.2.15 cells to IC50 for HBV infected in human HepG2.2.15 cells assessed as inhibition of viral DNA replication. In kind it is toxicity, cell-based. To be noted: for selectivity ratio: HepG2.2.15 cells, read-out: Ratio CC50/IC50.
Series [21] deals with Hepatitis B virus. Put plainly: Antiviral activity against HBV infected in human HepG2.2.15 cells assessed as inhibition of viral DNA replication pre-transfected cells with viral genome followed by compound treatment for 6 days with replacement of medium containing compound on every 2 days by RT-PCR analysis. In kind it is functional, organism-based.
Series [22] relates to Hepatitis B virus. The experiment in a line: Antiviral activity against HBV infected in human HepG2.2.15 cells assessed as inhibition of viral DNA replication at 100 uM pre-transfected cells with viral genome followed by compound treatment for 72 hrs by RT-PCR analysis relative to control. In kind it is functional.
Series [23] has as its system Hepatitis B virus. Put plainly: Antiviral activity against HBV infected in LAM/ETV-resistant human HepG2.A64 cells assessed as inhibition of viral DNA replication at 100 uM pre-transfected cells with viral genome followed by compound treatment for 72 hrs by RT-PCR analysis relative to control. Format: functional.

SMILES strings stand for the structures. Activity calls are given as the source filed them. The rule behind the calls is not given here. Where only a bound is given, the exact number is not on record here.

The results in this text go back to ChEMBL document CHEMBL5579825, “Exploration of 1-(indolin-1-yl)-2-(thiazol-2-yl)ethan-1-one derivatives as novel anti-HBV agent with potential TLR7-agonistic effect” (Eur J Med Chem, 2024).

A word on the inhibition: it is the drop in the measured response relative to a control, in per cent. `C=C1[C@H](CO)[C@@H](O)C[C@@H]1n1cnc2c(=O)[nH]c(N)nc21` [ENTECAVIR ANHYDROUS]: the inhibition at 10 µM was 20.1% in the series on Hepatitis B virus [1] and 98.1% in the series with Hepatitis B virus [2].

In general, Cmax refers to the maximum level reached in the sampled fluid or tissue. For orientation: CC50 means the concentration giving 50% cytotoxicity. A low value points to harm at low concentration. The Tmax is the time from dosing to the highest level. The half-life is the time in which the quantity being followed falls by half. A low value points to rapid decline. The term AUC(0-t) denotes the area under the concentration-time curve up to a stated or last time point. Read a high AUC(0-t) as more exposure. The IC50 is the concentration needed to halve the response being measured. As usually defined, the Kd is the free concentration of one partner at which half of the binding sites on the other are occupied at equilibrium, for simple one-to-one binding. Molecule `O=C(Cc1csc(COc2ccccc2F)n1)N1CCc2ccccc21` yielded a Cmax in [3] of 66 ng/mL. In addition, the CC50 at 72 h is greater than 20 µM in series [4] and greater than 50 µM in series [8]. For the same molecule, the values for the inhibition at 4 µM with Hepatitis B virus [5], with Hepatitis B virus [7] and in the series on Hepatitis B virus [9] were 69.2%, 71.7% and 74.2%, respectively. For the same molecule, in series [6], the Tmax is 2 h. For the same molecule, the figures for the selectivity ratio in series [10], in series [15] and in series [20] were greater than 1.93, greater than 55.6 and greater than 384, respectively. The molecule further showed a half-life in [11] of 2 h. For the same molecule, the AUC(0-t) at 12 h in series [12] was 252 ng·h/mL. Also, the Activity entry (in series [13]; in the series with PBMC [14]; in the series with PBMC [17]; with PBMC [18]) was “Dose-Dependent Effect” throughout. The outcome with HEK-293T was Active. The IC50 in series [16] was found to be 25.9 µM; with Hepatitis B virus [19], 0.36 µM; in the series on Hepatitis B virus [21], 0.13 µM. For the same molecule, the Kd at Toll-like receptor 7 was found to be 7.06 µM. The “Ratio CC50/IC50” value in series [20] is on record as greater than 384.62.

Consider `O=C(Cc1csc(COc2ccccc2)n1)N1CCc2cc(Cl)ccc21`, for which the CC50 at 72 h is greater than 20 µM in [4] and greater than 50 µM in [8]. The inhibition at 4 µM with Hepatitis B virus [5] was 80%; in the series on Hepatitis B virus [7], 74.5%; with Hepatitis B virus [9] it was 73.7%. The figures for the selectivity ratio in series [10], in series [15] and in series [20] were greater than 1.92, greater than 35.1 and greater than 217, respectively. Also, the IC50 was found to be 26.1 µM in [16], 0.57 µM in the series on Hepatitis B virus [19] and 0.23 µM in the series on Hepatitis B virus [21].

For `Nc1ccn([C@@H]2CS[C@H](CO)O2)c(=O)n1` [LAMIVUDINE], the CC50 at 72 h in series [4] and in [8] was greater than 100 µM in each case. Besides, the inhibition at 4 µM in the series on Hepatitis B virus [5] was found to be 90.8%. Further, the “Ratio CC50/IC50” value in series [10] was “Not Active”. Further, the IC50 is greater than 100 µM in series [16], greater than 100 µM in the series with Hepatitis B virus [19] and less than 0.1 µM with Hepatitis B virus [21]. Further, the values for the inhibition at 100 µM with Hepatitis B virus [22] and with Hepatitis B virus [23] were 92.3% and 17.8%, respectively. Besides, the selectivity ratio in [20] was greater than 1000.
